In patent publication US10406122B2 (priority 2011, dated 2019):
Where “and” joins values, the source holds several entries; their conditions need not be identical. Equal values may be shown once. Where a name gives a salt, the structure may show the parent alone. Read-outs that look alike come from different tables or passages of the source.

Assays:
[1] = clinical; conditions: human, in vivo
From the text: The secondary objectives of the study are to assess the safety and tolerability of the study medication.
The study was an open-label, single-period, randomized, parallel treatment design. The subjects underwent screening within 4 weeks of dosing. A total of 32 subjects were selected for participation. All subjects entered the clinical research unit on Day −1 prior to dosing. A blood sample for pharmacogenomic analysis was obtained at Day 1. This sample was to be used to determine the CYP2D6 phenotype if significant variability among subjects is observed in the pharmacokinetic values. Subjects received study drug every 6 hours beginning on the morning of Day 1 and ending on the morning of Day 3. The first dose on Day 1 and the last dose on Day 3 were administered after a minimum 10 hour fast.
No food was administered until 4 hours after dosing on Day 3. Standardized meals were provided. Subjects remained confined to the clinical research unit until after completion of the 24 hour post-dose blood sampling and safety assessments (Day 4). […] Study drug tolerability was evaluated by Investigator assessment and evaluation of adverse event frequency and severity, including irritation at the injection site. Subjects who were taking SSRIs, tricyclic antidepressants, antipsychotic agents and MAO inhibitors were excluded from the study.
The treatments are defined in Table 3 below. Each subject received only one of the designated treatments.
The subjects were randomized to receive one of the 4 treatment regimens as outlined above. Subjects were administered Treatments A or C by intravenous administration or Ultram® (Treatment B or D) orally beginning in the morning of Day 1 at approximately 6:00 AM to 8:00 AM. All subjects fasted for at least 10 hours prior to the first dose of study drug. […] Water was allowed ad libitum; however, water was restricted from 1 hour prior to dosing to 1 hour after dosing on Day 3. Following the last dose in the morning of Day 3, no food was allowed until after the 4 hour blood sample had been obtained.
FIG. 1 is a graphical representation of the plasma concentration curve for Treatments A-D after the administration of dose #9.

[2] = tested on: Beagle dogs; conditions: in vivo
[3] = in vivo; conditions: beagle, dog; for AUC(0-t) / Cmax: 26 mg/kg/day
[4] = cited from earlier work
[5] = tramadol […] [100 mg] p.o., single dose; cited from earlier work
[6] = in vivo, cited from earlier work
[7] = tested on: rats and dogs; conditions: repeat-dose; cited from earlier work
[8] = in vitro and in vivo; cited from earlier work
[9] = tested on: mice and rats; conditions: cited from earlier work
[10] = oral administration; cited from earlier work

For `COc1cccc([C@]2(O)CCCC[C@H]2CN(C)C)c1` (racemic) [Tramadol, (±)cis-2-[(dimethylamino)methyl]-1-(3-methoxyphenyl) cyclohexanol hydrochloride], the “Bioavailability, AUC6” value ([1]; 50 mg) was 85.2%, the “Bioavailability, AUCt” value ([1]; 50 mg) was 102.0% and the “Bioavailability, AUC∞” value ([1]; 50 mg) was 103.1%. The “Bioavailability, Cmax” value ([1]; 50 mg) was 64.3%, the “Bioavailability, T1/2” value ([1]; 50 mg) was 109.6% and the bioavailability ([1]; 50 mg) was 91.2%. The “Bioavailability, AUC6” value ([1]; 100 mg) was 70.3%, the “Bioavailability, AUCt” value ([1]; 100 mg) was 74.8% and the “Bioavailability, AUC∞” value ([1]; 100 mg) was 74.6%. For the same molecule, the “Bioavailability, Cmax” value ([1]; 100 mg) was 54.9%, the “Bioavailability, T1/2” value ([1]; 100 mg) was 88.0% and the bioavailability ([1]; 100 mg) was 114%. The dose proportionality ([1]; iv) was “substantially dose proportional”, the AUC ([1]; iv, 50 mg) was 1960 ± 450 ng·h/mL and the AUC(0-inf) ([1]; iv, 50 mg) was 4040 ± 1060 ng·h/mL. The AUC(0-t) ([1]; iv, 50 mg) was 4010 ± 1040 ng·h/mL, the half-life ([1]; iv, 50 mg) was 6.61 ± 0.4 h and the Cmax ([1]; iv, 50 mg) was about 541 ng/mL. For the same molecule, the Tmax ([1]; iv, 50 mg) was about 0.375 h, the AUC ([1]; iv, 100 mg) was 4730 ± 1240 ng·h/mL and the AUC(0-inf) ([1]; iv, 100 mg) was 11400 ± 4540 ng·h/mL. For the same molecule, the AUC(0-t) ([1]; iv, 100 mg) was 11200 ± 4270 ng·h/mL, the half-life ([1]; iv, 100 mg) was 7.89 ± 1.54 h and the Cmax ([1]; iv, 100 mg) was about 1250 ng/mL. For the same molecule, the Tmax ([1]; iv, 100 mg) was about 0.406 h, the “Dose Proportionality Ratio, T1/2” value ([1]; po) was 0.945 and the AUC ([1]; po, 50 mg) was 1730 ± 625 ng·h/mL. It also gave an AUC(0-inf) ([1]; po, 50 mg) of 4450 ± 2110 ng·h/mL, an AUC(0-t) ([1]; po, 50 mg) of 4360 ± 2030 ng·h/mL and a half-life ([1]; po, 50 mg) of 7.39 ± 1.72 h. It also gave a Cmax ([1]; po, 50 mg) of 355 ± 121 ng/mL, a Tmax ([1]; po, 50 mg) of 1.88 ± 0.78 h and an AUC ([1]; po, 100 mg) of 3360 ± 1010 ng·h/mL. The AUC(0-inf) ([1]; po, 100 mg) was 8850 ± 4570 ng·h/mL, the AUC(0-t) ([1]; po, 100 mg) was 8660 ± 4260 ng·h/mL and the half-life ([1]; po, 100 mg) was 7.05 ± 1.97 h. The Cmax ([1]; po, 100 mg) was 703 ± 210 ng/mL, the Tmax ([1]; po, 100 mg) was 2.32 ± 1.35 h and the adverse observations ([2]; dog) was “convulsions for two Beagle dogs”. The “toxicity in humans, conclusion from dog data” value [2] was “not toxic”, the NOAEL ([3]; both, 6.5 mg/kg) was 26 mg/kg/day and the AUC(0-t) ([3]; female) was 1520 ng·h/mL. It also gave a Cmax ([3]; female) of 1530 ng/mL, an AUC(0-t) ([3]; male) of 1210 ng·h/mL and a Cmax ([3]; male) of 1280 ng/mL. The “estimated absorption of the oral dose” value ([4]; 100 mg PO) was 86-88%, the AUC0-24 h ([4]; 100 mg i.v.) was 3709 ± 977 ng·h/mL and the Vd ([4]; 100 mg i.v.) was 203 L. For the same molecule, the t1/2 ([4]; 100 mg i.v.) was 5.2 h, the “CL/F (total clearance)” value ([4]; 100 mg i.v., hydrochloride) was 467 ± 124 mL/min and the “CL/F (total clearance)” value ([4]; 100 mg i.v., listed as tramadol, hydrochloride) was 710 ± 174 mL/min. For the same molecule, the “time to peak serum concentration (tmax)” value ([4]; 100 mg oral dosing) was “approximately 2 hours”, the AUC0-24 h ([4]; 100 mg p.o.) was 2488 ± 774 ng·h/mL and the Cmax ([4]; 100 mg p.o.) was 280 ± 49 ng/mL. For the same molecule, the Vd ([4]; 100 mg p.o.) was 306 L, the t1/2 ([4]; 100 mg p.o.) was 5.1 h and the “CL/F (total clearance)” value ([4]; 100 mg p.o., hydrochloride) was 710 ± 174 mL/min. For the same molecule, the “CL/F (total clearance)” value ([4]; 100 mg p.o., listed as tramadol, hydrochloride) was 467 ± 124 mL/min, the “absolute bioavailability of the oral dose” value ([4]; 100 mg, comparison of AUC values, hydrochloride) was 68±13% and 68% and the “distribution half-life in the initial phase” value ([4]; after IV administration) was 0.31 ± 0.17 h. The “half-life of slower distribution phase” value ([4]; after IV administration) was 1.7 ± 0.4 h, the first pass metabolism ([4]; estimated) was about 20% and the AUC [5] was 2177 ± 722 ng·h/mL. For the same molecule, the Cmax [5] was 274 ± 75 ng/mL, the Tmax [5] was 1.6 ± 0.5 h and the t1/2 [5] was 5.9 ± 0.7 h. For the same molecule, the half-life ([6]; iv) was 5.6 h, the absolute bioavailability ([6]; po) was 90-100% and the “increase of elimination half-life” value [6] was “approximately 2 fold”. For the same molecule, the “doses with behavioral/clinical signs and convulsions” value [7] was at least 25 mg/kg/day, the genotoxic potential [8] was “no evidence of genotoxic potential” and the carcinogenic potential [9] was “no evidence of carcinogenic potential”. The “fertility and teratogenic effects” value [10] was “no safety concerns with respect to fertility or teratogenic effects”.
